pKi: −log10 of the molar value.
Columns and labels:
[1] = molecular target: T1, human recombinant GABAA α5β3γ2 receptor (Homo sapiens (Human), UniProt P18507+P31644); experiment: Binding assay, [3H]Ro151788 displacement on membranes of HEK cells; conditions: 0.5 nM [3H]Ro151788, 60 minutes at 4° C., Cheng-Prusoff; read-out: hGABAA α5 Ki
Experimental: The GABAA α5β3γ2 protein used for the receptor binding assay was derived from membranes produced from HEK cells (Millipore CYL3073) expressing the human recombinant GABAA α5β3γ2 receptor. Cells were stored and cultured in-house according to the instructions provided by the vendor (Millipor). Cell pellet was homogenized in 10 times modified Krebs Henseleit buffer (membrane preparation buffer): 20 mM Tris, 120 mM NaCl, 100 mM KCl, 25 mM CaCl2) and 25 mM MgCl2 pH=7.4 at 4° C. using Ultra Turrax (Janke&Kunkel) maximal speed for 15 seconds. The homogenate was centrifuged at 40,000 g for 30 minutes at 4° C. Supernatant was discarded and the resulting pellet was washed in membrane preparation buffer. Pellet was resuspended in membrane preparation buffer and aliquots of 1.4 mL ampulles were stored at −70° C. until use.
Receptor binding assays were performed in 96-well format in deep-well plates. For each 96-well plate one ampulle of membrane homogenate was thawed and diluted in binding buffer (50 mM Tris pH=7.4, 100 mM KCl) and 200 μL was dispensed into each well. Radioligand [^3H]Ro151788 (Perkin Elmer: NET757250UC) was prepared in binding buffer and added to each well in 50 μL volume to give final concentration of 0.5 nM. Test compounds in suitable concentration(s) were added in additional 50 μL. The final assay volume was 300 μL. Incubation was carried out for 60 minutes at 4° C. For non-specific binding 10 μM unlabeled diazepam was used. After incubation samples were filtered over UniFilter® GF/B™ using Filtermate Harvester (Perkin Elmer) and washed with 5×1 mL binding buffer. The plate was dried at 40° C. for an hour and 40 μL Microscint (Perkin Elmer) scintillation cocktail was added to each well. The plate was read in Microbeta (Perkin Elmer).
The specific radioligand binding (SB) was defined as the difference between total binding (Tot) and the non-specific binding (NSB). Results are expressed as a percent inhibition of specific binding obtained in the presence of compound of interest.
For IC50 and Ki determination a minimum of six drug concentrations in triplicate were used. […] Ki values (i.e. inhibition constants) were calculated using the Cheng-Prusoff equation Ki=IC50/[1+(L/KD)], where [L] is the radioligand concentration and KD the affinity of the labelled ligand for receptor. KD was determined from the Saturation analyses.

[2] = molecular target: human recombinant GABAA α1β3γ2 receptor (Homo sapiens (Human), UniProt P14867+P18507); experiment: Functional assay, QPatch automated patch clamp, GABA-evoked currents; type: cell-based; conditions: test compound 10 μM, 1 μM GABA, HEK293 cells, percentage modulation of peak current
Sequence of human recombinant GABAA α1β3γ2 receptor (P14867 28-456): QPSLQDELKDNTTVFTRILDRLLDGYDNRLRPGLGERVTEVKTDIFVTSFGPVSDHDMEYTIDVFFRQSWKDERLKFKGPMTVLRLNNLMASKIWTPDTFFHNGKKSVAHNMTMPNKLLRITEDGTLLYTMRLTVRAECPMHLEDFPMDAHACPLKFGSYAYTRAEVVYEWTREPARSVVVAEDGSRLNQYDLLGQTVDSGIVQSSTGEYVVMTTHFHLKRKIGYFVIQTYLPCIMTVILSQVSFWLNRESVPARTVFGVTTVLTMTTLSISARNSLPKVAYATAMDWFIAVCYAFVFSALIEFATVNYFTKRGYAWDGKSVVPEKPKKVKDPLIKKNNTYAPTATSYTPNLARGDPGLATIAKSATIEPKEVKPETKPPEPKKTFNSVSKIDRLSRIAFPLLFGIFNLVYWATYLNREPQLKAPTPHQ
Sequence of human recombinant GABAA α1β3γ2 receptor (P28472 26-473 partner): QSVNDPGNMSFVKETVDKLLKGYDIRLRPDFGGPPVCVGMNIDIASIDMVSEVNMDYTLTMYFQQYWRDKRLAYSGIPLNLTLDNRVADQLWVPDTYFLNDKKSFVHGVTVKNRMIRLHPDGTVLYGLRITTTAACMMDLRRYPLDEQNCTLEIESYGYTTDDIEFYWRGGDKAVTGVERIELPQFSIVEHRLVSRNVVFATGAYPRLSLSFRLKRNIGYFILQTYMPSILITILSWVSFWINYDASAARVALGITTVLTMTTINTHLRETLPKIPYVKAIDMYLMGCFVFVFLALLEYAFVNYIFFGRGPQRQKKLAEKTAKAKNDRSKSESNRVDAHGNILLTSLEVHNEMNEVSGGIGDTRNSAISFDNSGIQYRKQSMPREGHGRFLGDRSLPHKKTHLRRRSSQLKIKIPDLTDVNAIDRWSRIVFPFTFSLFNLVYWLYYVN
Sequence of human recombinant GABAA α1β3γ2 receptor (P18507 40-475): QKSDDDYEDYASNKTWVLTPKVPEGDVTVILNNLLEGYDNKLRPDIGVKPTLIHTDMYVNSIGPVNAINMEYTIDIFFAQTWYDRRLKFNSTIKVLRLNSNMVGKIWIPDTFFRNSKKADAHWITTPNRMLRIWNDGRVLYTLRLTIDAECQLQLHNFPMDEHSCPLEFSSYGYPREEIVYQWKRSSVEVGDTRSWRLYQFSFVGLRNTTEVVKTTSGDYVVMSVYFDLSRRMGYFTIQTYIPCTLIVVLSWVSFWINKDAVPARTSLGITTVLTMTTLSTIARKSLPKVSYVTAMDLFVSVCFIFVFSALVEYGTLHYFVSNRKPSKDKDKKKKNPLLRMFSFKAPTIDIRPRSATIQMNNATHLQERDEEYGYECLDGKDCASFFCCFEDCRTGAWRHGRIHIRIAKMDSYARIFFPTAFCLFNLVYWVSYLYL
Experimental: (§1) Human HEK293 cell lines expressing GABAA α1β3γ2 and GABAAα5β3γ2 receptors were used in functional assays using the QPatch automated patch clamp system.
(§2) HEK293 cell lines stably expressing human recombinant GABAA α1β3γ2 receptor subunits (Millipore, CYL3073) or human recombinant GABAA α5β3γ2 receptor subunits (Millipore, CYL3053) were cultured in DMEM supplemented with 10% FBS (Gibco), passed two times per week and plated on Petri dishes previously coated with poly-d-lysine.
(§3) Automated whole-cell patch clamp recordings were made from cells 2-4 days after plating. Cells were detached using trypsin/EDTA (Sigma) treatment (2 minutes in 0.25% trypsin at 37° C.), then, after centrifugation (125 G, 3 min, 2×), resuspended in a serum-free based media (Gibco, CHO—S-SFM-II) containing 12.5 mM HEPES, 1× penicillin-streptomycin-amphotericin (SigmaMix) and soybean trypsin inhibitor (Sigma, 0.04 mg/ml).
(§4) Cell suspension, as well as the extracellular solution (130 mM NaCl, 5 mM KCl, 5.1 mM HEPES, 4.9 mM HEPES-Na, 10 mM CaCl2), 2 mM MgCl2, 10 mM glucose and 0.1% DMSO, pH=7.35-7.4) and the intracellular solution (80 mM KCl, 50 mM KF, 36 mM KOH, 10 mM EGTA, 10 mM HEPES, 1.75 mM MgCl2, 0.5 mM CaCl2), 4 mM Na2ATP. 14 mM phosphocreatine, 50 U/ml creatine-phosphokinase, 0.3 mM GTP, pH=7.25-7.3) were added to the QPatch-HTX automated patch clamp system (Sophion) in single-cell mode at room temperature. […] At the end of the experiment 100 μM GABA was applied to saturate the GABA-response and to assess the efficacy of the control GABA application.
(§5) The percentage modulation was calculated from the comparison of GABA-evoked peak current amplitudes in the presence and absence of the test compound.

[3] = molecular target: T1, human recombinant GABAA α5β3γ2 receptor; experiment: as above; type: cell-based; conditions: test compound 10 μM, 1 μM GABA, HEK293 cells, percentage modulation of peak current
Experimental: as §1, §2, §3, §4, §5

T1 sequence (P31644 32-462): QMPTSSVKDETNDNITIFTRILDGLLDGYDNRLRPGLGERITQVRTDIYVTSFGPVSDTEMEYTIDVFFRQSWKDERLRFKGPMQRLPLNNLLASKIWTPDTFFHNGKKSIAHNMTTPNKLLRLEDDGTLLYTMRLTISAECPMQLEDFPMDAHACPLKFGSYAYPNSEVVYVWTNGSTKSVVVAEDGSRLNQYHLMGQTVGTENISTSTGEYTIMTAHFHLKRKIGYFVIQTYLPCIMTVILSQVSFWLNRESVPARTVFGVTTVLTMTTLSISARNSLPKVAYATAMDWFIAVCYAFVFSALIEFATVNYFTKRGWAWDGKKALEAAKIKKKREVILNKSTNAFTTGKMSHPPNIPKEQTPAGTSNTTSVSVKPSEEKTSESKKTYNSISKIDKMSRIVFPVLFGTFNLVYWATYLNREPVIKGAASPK
T1 sequence (P28472 26-473 partner): as the sequence (P28472 26-473 partner) above
T1 sequence (P18507 40-475): as the sequence (P18507 40-475) above

Row | Compound | pKi [1] | hGABAA α1 efficacy [2] | hGABAA α5 efficacy [3]
1 | Cc1onc(-c2ccc(F)cc2)c1COc1ccc2c(n1)CCN(C(=O)C1CCOC1)C2 (stereo not shown) [Example 2, 2-{[3-(4-fluorophenyl)-5-methyl-1,2-oxazol-4-yl]methoxy}-6-(oxolane-3-carbonyl)-5,6,7,8-tetrahydro-1,6-naphthyridine] | 8.15 | −14% | −40%
2 | Cc1onc(-c2ccc(F)cc2)c1COc1ccc2c(n1)CCN(C(=O)C1CCS(=O)(=O)CC1)C2 [Example 6, 4-(2-{[3-(4-fluorophenyl)-5-methyl-1,2-oxazol-4-yl]methoxy}-5,6,7,8-tetrahydro-1,6-naphthyridine-6-carbonyl)-1lambda6-thiane-1,1-dione] | 8.57 | −10% | −38%
3 | Cc1onc(-c2ccc(F)cc2)c1COc1ccc2c(n1)CCN(C(=O)CS(C)(=O)=O)C2 [Example 8, 1-(2-{[3-(4-fluorophenyl)-5-methyl-1,2-oxazol-4-yl]methoxy}-5,6,7,8-tetrahydro-1,6-naphthyridin-6-yl)-2-methanesulfonylethan-1-one] | 8.43 | −2% | −39%
4 | Cc1onc(-c2ccc(F)cc2)c1COc1ccc2c(n1)CCN(C(=O)C1CCOCC1)C2 [Example 9, 2-{[3-(4-fluorophenyl)-5-methyl-1,2-oxazol-4-yl]methoxy}-6-(oxane-4-carbonyl)-5,6,7,8-tetrahydro-1,6-naphthyridine] | 8.21 | −9% | −37%
5 | Cc1onc(-c2ccc(F)cc2)c1COc1ccc2c(n1)CCN(C(=O)C1CC(=O)N(C)C1)C2 (stereo not shown) [Example 13, 4-(2-{[3-(4-fluorophenyl)-5-methyl-1,2-oxazol-4-yl]methoxy}-5,6,7,8-tetrahydro-1,6-naphthyridine-6-carbonyl)-1-methylpyrrolidin-2-one] | 8.37 | −3% | −34%
6 | CC(=O)N1CCc2nc(OCc3c(C)nnn3-c3ccc(F)cc3)ccc2C1 [Example 14, 1-(2-{[1-(4-fluorophenyl)-4-methyl-1H-1,2,3-triazol-5-yl]methoxy}-5,6,7,8-tetrahydro-1,6-naphthyridin-6-yl)ethan-1-one] | 7.55 | 0% | −36%
7 | Cc1nnn(-c2ccc(F)cc2)c1COc1ccc2c(n1)CCN(C(=O)C1CCCO1)C2 (stereo not shown) [Example 15, 2-{[1-(4-fluorophenyl)-4-methyl-1H-1,2,3-triazol-5-yl]methoxy}-6-(oxolane-2-carbonyl)-5,6,7,8-tetrahydro-1,6-naphthyridine] | 7.38 | −8% | −43%
8 | Cc1nnn(-c2ccc(F)cc2)c1COc1ccc2c(n1)CCN(C(=O)C1CCOC1)C2 (stereo not shown) [Example 16, 2-{[1-(4-fluorophenyl)-4-methyl-1H-1,2,3-triazol-5-yl]methoxy}-6-(oxolane-3-carbonyl)-5,6,7,8-tetrahydro-1,6-naphthyridine] | 7.38 | −7% | −39%
9 | Cc1nnn(-c2ccc(Cl)cc2)c1COc1ccc2c(n1)CCN(C(=O)C1CCOC1)C2 (stereo not shown) [Example 29, 2-{[1-(4-chlorophenyl)-4-methyl-1H-1,2,3-triazol-5-yl]methoxy}-6-(oxolane-3-carbonyl)-5,6,7,8-tetrahydro-1,6-naphthyridine] |  | −2% | −25%
10 | Cn1nnc(-c2ccc(F)cc2)c1COc1ccc2c(n1)CN(C(=O)C1CCCO1)C2 (stereo not shown) [Example 73, 4-(4-fluorophenyl)-1-methyl-5-({[6-(oxolane-2-carbonyl)-5H,6H,7H-pyrrolo[3,4-b]pyridin-2-yl]oxy}methyl)-1H-1,2,3-triazole] | 7.74 |  | 
11 | Cn1nnc(-c2ccc(F)cc2)c1COc1ccc2c(n1)CN(C(=O)C1CCCOC1)C2 (stereo not shown) [Example 74, 4-(4-fluorophenyl)-1-methyl-5-({[6-(oxane-3-carbonyl)-5H,6H,7H-pyrrolo[3,4-b]pyridin-2-yl]oxy}methyl)-1H-1,2,3-triazole] | 7.34 |  | 
12 | Cc1nnn(-c2ccc(F)cc2)c1COc1ccc2c(n1)CCN(C(=O)N(C)C)C2 [Example 76, 2-{[1-(4-fluorophenyl)-4-methyl-1H-1,2,3-triazol-5-yl]methoxy}-N,N-dimethyl-5,6,7,8-tetrahydro-1,6-naphthyridine-6-carboxamide] | 7.52 |  | 
13 | Cc1nnn(-c2ccc(F)cc2)c1COc1ccc2c(n1)CCN(C(=O)N1CCCC1)C2 [Example 77, 2-{[1-(4-fluorophenyl)-4-methyl-1H-1,2,3-triazol-5-yl]methoxy}-6-(pyrrolidine-1-carbonyl)-5,6,7,8-tetrahydro-1,6-naphthyridine] | 7.18 |  | 
14 | Cc1nnn(-c2ccc(F)cc2)c1COc1ccc2c(n1)CCN(C(=O)Nc1ccccc1Cl)C2 [Example 79, N-(2-chlorophenyl)-2-{[1-(4-fluorophenyl)-4-methyl-1H-1,2,3-triazol-5-yl]methoxy}-5,6,7,8-tetrahydro-1,6-naphthyridine-6-carboxamide] | 6.97 |  | 
15 | Cc1nnn(-c2ccc(F)cc2)c1COc1ccc2c(n1)CCN(C(=O)N1CCOCC1)C2 [Example 80, 2-{[1-(4-fluorophenyl)-4-methyl-1H-1,2,3-triazol-5-yl]methoxy}-6-(morpholine-4-carbonyl)-5,6,7,8-tetrahydro-1,6-naphthyridine] | 7.42 |  | 
16 | Cc1nnn(-c2ccc(F)cc2)c1COc1ccc2c(n1)CCN(C(=O)Nc1ccc(Cl)cc1)C2 [Example 81, N-(4-chlorophenyl)-2-{[1-(4-fluorophenyl)-4-methyl-1H-1,2,3-triazol-5-yl]methoxy}-5,6,7,8-tetrahydro-1,6-naphthyridine-6-carboxamide] | 7.43 |  | 
17 | Cc1onc(-c2ccc(F)cc2)c1COc1ccc2c(n1)CCN(C(=O)N1CCOCC1)C2 [Example 82, 2-{[3-(4-fluorophenyl)-5-methyl-1,2-oxazol-4-yl]methoxy}-6-(morpholine-4-carbonyl)-5,6,7,8-tetrahydro-1,6-naphthyridine] | 8.28 |  | 
18 | Cc1onc(-c2ccc(F)cc2)c1COc1ccc2c(n1)CCN(C(=O)N(C)C)C2 [Example 83, 2-{[3-(4-fluorophenyl)-5-methyl-1,2-oxazol-4-yl]methoxy}-N,N-dimethyl-5,6,7,8-tetrahydro-1,6-naphthyridine-6-carboxamide] | 8.42 |  | 
19 | Cc1onc(-c2ccc(F)cc2)c1COc1ccc2c(n1)CCN(C(=O)N1CCCC1)C2 [Example 84, 2-{[3-(4-fluorophenyl)-5-methyl-1,2-oxazol-4-yl]methoxy}-6-(pyrrolidine-1-carbonyl)-5,6,7,8-tetrahydro-1,6-naphthyridine] | 8.05 |  | 
20 | Cc1onc(-c2ccc(F)cc2)c1COc1ccc2c(n1)CCN(C(=O)NC1CCOC1)C2 (stereo not shown) [Example 86, 2-{[3-(4-fluorophenyl)-5-methyl-1,2-oxazol-4-yl]methoxy}-N-(oxolan-3-yl)-5,6,7,8-tetrahydro-1,6-naphthyridine-6-carboxamide] | 8.19 |  | 

Reference: patent publication US12370182B2, “Bicyclic derivatives as GABAA A5 receptor modulators” (RICHTER GEDEON NYRT., priority 2018, dated 2025)
